The test system of data set [1] is Growth Hormone Secretagoge Receptor. Briefly: Test cell + detector cell (FDG), GHSR. It is filed as cell-based, sheep. As to conditions: CY18879, CP6416, saturating or near saturating ligand.
Protocol: (§1) A strain of test cells was established by transforming (transfecting) a culture of S. cerevisiae yeast cells with the human1a (ML1a) receptor gene. Cultures of MATα test cells containing a heterologous ML1a receptor (CY1 3858) and MATa detector cells (a CY19 related strain containing the CP1212 FUS1p-LacZ plasmid) were grown overnight to stationary phase in media selective for the maintenance of the plasmids (SCD-leu media for the MATα cells and SCD-ura for the MATα cells). The cells were diluted with additional medium and permitted to recover from stationary phase for several hours. After determination of the optical density of the cultures, the cells were harvested by centrifugation, were washed once in non-selective synthetic medium, and were resuspended in non-selective medium at an approximate optical density (measured at 600 nm) of 0.4. […] The final volume of cells, culture medium and ligand was about 100 microliters. The cells were mixed using a plate-mixer and incubated at 30° C. […] The reaction was then stopped by the addition of 60 microliters 1 M sodium carbonate, and the absorbance at a wavelength of 575 nm was determined using a plate reader. […]
The test system is the same in data set [2]. Kind of data set: Test cell + FUS1p-lacZ plasmid, GHSR. It is filed as cell-based, sheep. The following applies: CY18879, CP6416, saturating or near saturating ligand.
Protocol: (§2) Detection of LacZ activity in the detector cells (data shown in Table 6) was performed essentially as described in the experimental protocol of Example 1, with the exception that 20 microliters of a solution containing 0.5 mM fluorescein di-β-D-galactopyranoside (FDG), 125 mM PIPES pH 7.2, 1.25% Triton X-100 was added instead of the 20 microliters of CPRG solution utilized in Example 1. Following addition of the FDG solution, the reaction was incubated for 30 minutes at 37° C. After stopping the reaction with 20 microliters of 1 M Na2CO3, the fluorescence was determined utilizing a 96-well plate reader with an excitation wavelength of 485 nm and an emission wavelength of 535 nm.
Data set [3] has as its system R-VIP-1 Rat. Kind of data set: Test cell + detector cell (FDG), R-VIP-1. It is filed as cell-based. As to conditions: CY18636, CP4110, saturating or near saturating ligand.
Protocol: as §1
Data set [4] deals with R-VIP-1. Briefly: Test cell + FUS1p-lacZ plasmid, R-VIP-1. It is filed as cell-based, Rat. The following applies: CY18636, CP4110, saturating or near saturating ligand.
Protocol: as §2
Data set [5] concerns the target T1, ML1a melatonin receptor (Homo sapiens, UniProt P48039).
T1 construct: expressed in transfected cells; host or cells: S. cerevisiae MATα test cells (CY13858; CY18596, MFα1-deleted), plasmid CP2695
Briefly: Two cell assay: MFα1-deleted MATα test cells with ML1a receptor (CY18596) + MATa detector cells, β-galactosidase (CPRG). It is filed as cell-based. As to conditions: MFα1-deleted test cells expressing ML1a receptor.
Protocol: (§3) Cultures of MATα test cells containing a heterologous ML1a receptor (CY1 3858) and MATa detector cells (a CY19 related strain containing the CP1212 FUS1p-LacZ plasmid) were grown overnight to stationary phase in media selective for the maintenance of the plasmids (SCD-leu media for the MATα cells and SCD-ura for the MATα cells). The cells were diluted with additional medium and permitted to recover from stationary phase for several hours. After determination of the optical density of the cultures, the cells were harvested by centrifugation, were washed once in non-selective synthetic medium, and were resuspended in non-selective medium at an approximate optical density (measured at 600 nm) of 0.4. […] The final volume of cells, culture medium and ligand was about 100 microliters. The cells were mixed using a plate-mixer and incubated at 30° C. […] The reaction was then stopped by the addition of 60 microliters 1 M sodium carbonate, and the absorbance at a wavelength of 575 nm was determined using a plate reader.
Using the experimental protocol described in Example 1, MATα test cells lacking the MFα1 gene and containing a plasmid encoding the ML1a receptor (CY18596) or a mock control plasmid (CY18594) were mixed with an equal number of MATa detector cells having a FUS1-LacZ plasmid. […]

Data set [6] deals with T2, melatonin ML1a receptor (Homo sapiens, UniProt P48039).
T2 construct: expressed in transfected cells; host or cells: S. cerevisiae MATα test cells (CY13858; CY18596, MFα1-deleted), plasmid CP2695
T2 sequence (P48039 whole entry): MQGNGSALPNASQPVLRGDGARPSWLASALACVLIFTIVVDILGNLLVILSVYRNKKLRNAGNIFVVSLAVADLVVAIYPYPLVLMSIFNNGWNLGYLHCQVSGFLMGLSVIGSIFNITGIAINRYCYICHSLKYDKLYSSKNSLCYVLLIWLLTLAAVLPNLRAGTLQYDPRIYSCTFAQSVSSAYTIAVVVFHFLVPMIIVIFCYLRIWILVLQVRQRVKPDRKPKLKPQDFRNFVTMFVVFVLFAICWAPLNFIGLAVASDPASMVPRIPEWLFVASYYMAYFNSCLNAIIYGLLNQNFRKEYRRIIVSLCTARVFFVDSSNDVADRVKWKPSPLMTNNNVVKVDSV
Briefly: Two cell assay: MATα test cells with ML1a receptor (CY13858) + MATa FUS1p-LacZ detector cells, β-galactosidase (CPRG). It is filed as cell-based.
Description: Binding of cognate ligand to the heterologous receptor in the test cell activates the receptor, causing a signal to be transduced through the pheromone response pathway, ultimately resulting in the secretion of α-factor from the cell. Specific receptors at the surface of the detector cells bind to the secreted α-factor and are activated by it, resulting in the transduction of a signal through the pheromone response pathway in these cells, and activating the transcription of the lacZ gene. The activity of the β-galactosidase expressed from this lacZ gene may be determined and thereby enables a determination of the activity of the pheromone response pathway in the first, test cells.
A strain of test cells was established by transforming (transfecting) a culture of S. cerevisiae yeast cells with the human1a (ML1a) receptor gene. […] After determination of the optical density of the cultures, the cells were harvested by centrifugation, were washed once in non-selective synthetic medium, and were resuspended in non-selective medium at an approximate optical density (measured at 600 nm) of 0.4. […] The reaction was then stopped by the addition of 60 microliters 1 M sodium carbonate, and the absorbance at a wavelength of 575 nm was determined using a plate reader.

Data set [7] deals with MATα test cells lacking the ML1a receptor. Kind of data set: Two cell assay: MFα1-deleted MATα test cells with mock plasmid (CY18594) + MATa detector cells, β-galactosidase (CPRG). It is filed as cell-based, S. cerevisiae. As to conditions: in the presence of melatonin.
Protocol: as §3
In data set [8] the target is T3, Bradykinin 2 Receptor (Homo sapiens, UniProt P30411).
T3 construct: expressed in transfected cells; host or cells: S. cerevisiae MATα test cells, plasmid CP1930
T3 sequence (P30411 1-391): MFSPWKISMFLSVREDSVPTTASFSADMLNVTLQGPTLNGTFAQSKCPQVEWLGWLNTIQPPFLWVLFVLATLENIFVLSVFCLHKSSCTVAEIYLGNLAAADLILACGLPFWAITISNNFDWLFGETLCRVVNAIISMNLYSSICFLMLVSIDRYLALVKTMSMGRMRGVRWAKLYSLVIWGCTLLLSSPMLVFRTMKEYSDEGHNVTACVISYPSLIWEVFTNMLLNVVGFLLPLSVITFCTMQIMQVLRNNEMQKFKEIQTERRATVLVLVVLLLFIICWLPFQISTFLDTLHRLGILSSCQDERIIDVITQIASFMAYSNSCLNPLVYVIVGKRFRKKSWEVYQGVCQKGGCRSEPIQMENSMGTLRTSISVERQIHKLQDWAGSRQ
Kind of data set: Test cell + FUS1p-lacZ plasmid, BK2. As to conditions: CY18778, CP1930, saturating or near saturating ligand. It is filed as cell-based.
Protocol: as §2

For data set [9], the target named is T3, Bradykinin 2 Receptor. Briefly: Test cell + detector cell (FDG), BK2. It is filed as cell-based. As to conditions: CY18778, CP1930, saturating or near saturating ligand.
Protocol: as §1

Non-standard residues stand in square brackets, D forms with d. Residues, ends and D or L forms follow the SMILES beside them. No end group written: not given here.

T1 sequence (P48039 whole entry): as the sequence (P48039 whole entry) above

On to `C[C@H](NC(=O)[C@@H](Cc1c[nH]c2ccccc12)NC(=O)[C@@H](N)Cc1c[nH]cn1)C(=O)N[C@@H](Cc1c[nH]c2ccccc12)C(=O)N[C@H](Cc1ccccc1)C(=O)N[C@@H](CCCCN)C(N)=O` [GHRP-6] (H-H[dW]AW[dF]K-NH2), for which the “Fold induction, Test cell + Detector Cell” value in [1] was 4 fold. For the same compound, the “Fold induction, Test Cell + FUS1p-lacZ plasmid” value in data set [2] came to 9 fold.

Take `NC(=O)CC[C@@H]1NC(=O)[C@H](Cc2ccccc2)NC(=O)[C@H](Cc2ccc(O)cc2)NC(=O)[C@@H](N)CSSC[C@@H](C(=O)N2CCC[C@H]2C(=O)N[C@@H](CCCN=C(N)N)C(=O)NCC(N)=O)NC(=O)[C@H](CC(N)=O)NC1=O` [Vasopressin]: the “Fold induction, Test cell + Detector Cell” value in data set [3] came out at 8 fold. Also, in data set [4], the “Fold induction, Test Cell + FUS1p-lacZ plasmid” value is 20 fold.

As to `COc1ccc2[nH]cc(CCNC(C)=O)c2c1` [melatonin], in data set [5] (in the presence of melatonin), the β-galactosidase activity result is on record as “approximately 2.1 units”. Besides, the “increase in β-galactosidase activity” value in data set [5] (melatonin versus no ligand) is about 5.2 fold. Also, in [6] (in the presence of melatonin, no ligand approximately 1.1 units), the “β-galactosidase activity in the detector cells” value is recorded as “approximately 1.8 units”. Also, the “induction in β-galactosidase activity” value in [6] (melatonin versus no ligand) is “approximately 1.6 fold”. In data set [7], the “α-factor secretion by test cells as detected by detector cells” value was “did not secrete any additional α-factor”.

For the compound RPPGFSPFR [Bradykinin], the “Fold induction, Test Cell + FUS1p-lacZ plasmid” value in data set [8] came to 101 fold. In data set [9], the “Fold induction, Test cell + Detector Cell” value was determined as 84 fold.
